Several values for one entry are separate records, joined by “and”; a condition that tells them apart may be missing. Equal entries are not always repeated.
Assay: molar heat capacity at constant pressure
Details: 101.33 kPa, Small sample (50 mg) DSC

O[C@@H]1CCCC[C@@H]1O [cis-1,2-cyclohexanediol]
Details | molar heat capacity at constant pressure
174.3 K, Crystal 2 | 89.6 J/K/mol
185.2 K, Crystal 2 | 92.7 J/K/mol
193.1 K, Crystal 2 | 100 J/K/mol
202.2 K, Crystal 2 | 101.1 J/K/mol
215.9 K, Crystal 2 | 111 J/K/mol
230.1 K, Crystal 2 | 121.1 J/K/mol
248.1 K, Crystal 2 | 127.3 J/K/mol
259.2 K, Crystal 2 | 134.9 J/K/mol
266.2 K, Crystal 2 | 138.2 J/K/mol
273.1 K, Crystal 2 | 141.4 J/K/mol
278.2 K, Crystal 2 | 148.8 J/K/mol
283 K, Crystal 2 | 151.1 J/K/mol
288.2 K, Crystal 2 | 152 J/K/mol and 154.2 J/K/mol
293.2 K, Crystal 2 | 157.8 J/K/mol and 157.6 J/K/mol
298.1 K, Crystal 2 | 160.4 J/K/mol
300.2 K, Crystal 2 | 162 J/K/mol and 163.9 J/K/mol
308.2 K, Crystal 2 | 168 J/K/mol and 166.4 J/K/mol
316 K, Crystal 2 | 171.9 J/K/mol
323.3 K, Crystal 2 | 175 J/K/mol
328.2 K, Crystal 2 | 177.2 J/K/mol
333.2 K, Crystal 2 | 180.8 J/K/mol
339.2 K, Crystal 2 | 184.3 J/K/mol
344.1 K, Crystal 2 | 186.2 J/K/mol
346.3 K, Crystal 2 | 190 J/K/mol
348.1 K, Crystal 2 | 191.8 J/K/mol
350.2 K, Crystal 2 | 192.5 J/K/mol
363.1 K, Crystal 1 | 279.6 J/K/mol
366.2 K, Crystal 1 | 284.9 J/K/mol
367.2 K, Crystal 1 | 290.4 J/K/mol
368.2 K, Crystal 1 | 292.8 J/K/mol
378.1 K, Liquid | 297.9 J/K/mol
383.2 K, Liquid | 300 J/K/mol
385.2 K, Liquid | 302.5 J/K/mol
388 K, Liquid | 304.1 J/K/mol
393.2 K, Liquid | 305 J/K/mol
397.3 K, Liquid | 306.3 J/K/mol
403.1 K, Liquid | 310.5 J/K/mol
413.2 K, Liquid | 312.8 J/K/mol

O[C@H]1CC[C@H](O)CC1 [trans-1,4-cyclohexanediol]
Details | molar heat capacity at constant pressure
176.5 K, Crystal | 100.6 J/K/mol
183.2 K, Crystal | 105.6 J/K/mol
189.1 K, Crystal | 109.5 J/K/mol
198.9 K, Crystal | 115.4 J/K/mol
206.9 K, Crystal | 115.6 J/K/mol
215 K, Crystal | 121 J/K/mol
222.2 K, Crystal | 124.6 J/K/mol
230.2 K, Crystal | 127.3 J/K/mol
238.3 K, Crystal | 135.4 J/K/mol
258.3 K, Crystal | 142.2 J/K/mol
273.2 K, Crystal | 145.6 J/K/mol
278.1 K, Crystal | 148.8 J/K/mol and 150.6 J/K/mol and 149 J/K/mol
283.2 K, Crystal | 151 J/K/mol and 151.1 J/K/mol
288.2 K, Crystal | 154 J/K/mol
293.2 K, Crystal | 156.4 J/K/mol and 157.4 J/K/mol
303.2 K, Crystal | 167 J/K/mol
308.1 K, Crystal | 168.1 J/K/mol and 169.9 J/K/mol
313.2 K, Crystal | 173 J/K/mol
323.3 K, Crystal | 174 J/K/mol
333.1 K, Crystal | 177.4 J/K/mol
343.2 K, Crystal | 181.4 J/K/mol and 183.9 J/K/mol
353.1 K, Crystal | 187.1 J/K/mol
363.2 K, Crystal | 190.5 J/K/mol
373.2 K, Crystal | 198 J/K/mol
393.1 K, Liquid | 310.7 J/K/mol
403.2 K, Liquid | 313 J/K/mol
